Where two headings read alike, the source gives them in different places.
What was measured:
CLK2 = target: T1, CLK2 (Homo sapiens, UniProt P49760); test: CLK2 kinase activity assay (Z-lyte, Ser/Thr 6 peptide); type: biochemical; conditions: recombinant CLK2 kinase, ATP 60 μM; read-out: EC50
T1 construct: purchased Thermo Fisher (Life Technologies), Z'-LYTE Kinase Assay Kits
Procedure: All reactions were performed in duplicate.

[1] = test system: liver cancer (3 cell lines); test: CellTiter-Glo Viability Assay, liver cancer; type: cell-based; conditions: Homo sapiens, inhibition of cancer cell proliferation
all 50 cell lines = test: CellTiter-Glo Viability Assay, average across all cell lines; type: cell-based; conditions: Homo sapiens; across all 50 cell lines; read-out: average EC50 for inhibition of cancer cell proliferation
In short: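 Human cancer cell lines from breast, colorectal, haematopoietic/lymphoid, liver, lung, ovarian, pancreatic and prostate tumours were seeded at 300-3,000 cells/well and exposed to compound in duplicate for four days at 37° C, 5% CO2. Viable cells were measured by ATP luminescence; EC50 values came from dose-response curves.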

[2] = test system: colorectal cancer (6 cell lines); test: CellTiter-Glo Viability Assay, colorectal cancer; type: cell-based; conditions: Homo sapiens, inhibition of cancer cell proliferation
[3] = test system: lung cancer (4 cell lines); test: CellTiter-Glo Viability Assay, lung cancer; type: cell-based; conditions: Homo sapiens, inhibition of cancer cell proliferation
[4] = test system: ovarian cancer (4 cell lines); test: CellTiter-Glo Viability Assay, ovarian cancer; type: cell-based; conditions: Homo sapiens, inhibition of cancer cell proliferation
[5] = test system: pancreatic cancer (8 cell lines); test: CellTiter-Glo Viability Assay, pancreatic cancer; type: cell-based; conditions: Homo sapiens, inhibition of cancer cell proliferation
CLK3 = CLK3 (Homo sapiens, UniProt P49761); test: CLK3 kinase activity assay (Z-lyte, Ser/Thr 18 peptide)
CAMA1 = test: CellTiter-Glo Viability Assay, breast cancer; type: cell-based; conditions: Homo sapiens, CAMA-1, 96 h; CAMA1, breast cancer, four days; read-out: EC50
HCC1599 = test: CellTiter-Glo Viability Assay, breast cancer; type: cell-based; conditions: Homo sapiens, 96 h; HCC1599, breast cancer, four days; read-out: EC50
BT-549 = test: CellTiter-Glo Viability Assay, breast cancer; type: cell-based; conditions: Homo sapiens, 96 h; BT-549, breast cancer, four days; read-out: EC50
T47D = test: CellTiter-Glo Viability Assay, breast cancer; type: cell-based; conditions: Homo sapiens, 96 h, breast cancer, four days, read-out: EC50
DU4475 = test: CellTiter-Glo Viability Assay, breast cancer; type: cell-based; conditions: Homo sapiens, DU-4475, 96 h; DU4475, breast cancer, four days; read-out: EC50
MDA-MB-231-Luc = test: CellTiter-Glo Viability Assay, breast cancer; type: cell-based; conditions: Homo sapiens, 96 h; MDA-MB-231-Luc, breast cancer, four days; read-out: EC50
MCF7 = test: CellTiter-Glo Viability Assay, breast cancer; type: cell-based; conditions: Homo sapiens, 96 h; MCF7, breast cancer, four days; read-out: EC50
ZR-75-1 = test: CellTiter-Glo Viability Assay, breast cancer; type: cell-based; conditions: Homo sapiens, 96 h; ZR-75-1, breast cancer, four days; read-out: EC50
[6] = test system: prostate cancer (5 cell lines); test: CellTiter-Glo Viability Assay, prostate cancer; type: cell-based; conditions: Homo sapiens
[7] = test system: haematopoietic & lymphoid tumors (13 cell lines); test: CellTiter-Glo Viability Assay, haematopoietic & lymphoid tumors; type: cell-based; conditions: Homo sapiens, inhibition of cancer cell proliferation
[8] = SNU-398, SNU398 cell line, read-out: Liver cancer, EC50 SNU398
[9] = HEPG2 cell line, read-out: Liver cancer, EC50 HEPG2
[10] = PLC/PRF/5 cell line, read-out: Liver cancer, EC50 PLC/PRF/5
[11] = HCT-116, HCT116 cell line, read-out: Colorectal cancer, EC50 (μM) HCT116
[12] = HT-29, HT29 cell line, read-out: Colorectal cancer, EC50 (μM) HT29
[13] = SW-620, SW620 cell line, read-out: Colorectal cancer, EC50 (μM) SW620
[14] = DLD-1 cell line, read-out: Colorectal cancer, EC50 (μM) DLD-1
[15] = SW48 cell line, read-out: Colorectal cancer, EC50 (μM) SW48
[16] = SW480 cell line, read-out: Colorectal cancer, EC50 (μM) SW480
[17] = A-427, A427 cell line, read-out: Lung cancer, EC50 (μM) A427
[18] = HCC78, HCC-78 cell line, read-out: Lung cancer, EC50 (μM) HCC-78
[19] = NCI-H460 cell line, read-out: Lung cancer, EC50 (μM) NCI-H460
[20] = NCI-H522 cell line, read-out: Lung cancer, EC50 (μM) NCI-H522
[21] = PA-1, PA1 cell line, read-out: Ovarian cancer, EC50 (μM) PA1
[22] = TOV112D, TOV-112D cell line, read-out: Ovarian cancer, EC50 (μM) TOV-112D
[23] = OV-90 cell line, read-out: Ovarian cancer, EC50 (μM) OV-90
[24] = OVCAR-3 cell line, read-out: Ovarian cancer, EC50 (μM) OVCAR-3
[25] = BXPC-3, BxPC3 cell line, read-out: Pancreatic cancer, EC50 BxPC3
[26] = CAPAN-1, Capan1 cell line, read-out: Pancreatic cancer, EC50 Capan1
[27] = Capan-2, Capan2 cell line, read-out: Pancreatic cancer, EC50 Capan2
[28] = MIA PaCa-2 cell line, read-out: Pancreatic cancer, EC50 MIA PaCa-2
[29] = PANC 05.04 cell line, read-out: Pancreatic cancer, EC50 PANC 05.04
[30] = PANC-1 cell line, read-out: Pancreatic cancer, EC50 PANC-1
[31] = UPAFII cell line, read-out: Pancreatic cancer, EC50 UPAFII
[32] = DU-145, read-out: Prostate cancer EC50 Du-145
[33] = PC-3, PC3 cell line, inhibition of cancer cell proliferation, read-out: Prostate cancer EC50 PC3
[34] = 22Rv1 cell line, inhibition of cancer cell proliferation, read-out: Prostate cancer EC50 22Rv1
[35] = LNCap clone FGC cell line, inhibition of cancer cell proliferation, read-out: Prostate cancer EC50 LNCap clone FGC
[36] = VCaP (Sigma) cell line, inhibition of cancer cell proliferation, read-out: Prostate cancer EC50 VCaP (Sigma)
[37] = DND41, DND-41 cell line, read-out: Haematopoietic & Lymphoid tumors, EC50 (μM) DND-41
[38] = MV4-11, MV-4-11 cell line, read-out: Haematopoietic & Lymphoid tumors, EC50 (μM) MV-4-11
[39] = Rec1, REC-1 cell line, read-out: Haematopoietic & Lymphoid tumors, EC50 (μM) REC-1
[40] = SU-DHL-4, SUDHL4 cell line, read-out: Haematopoietic & Lymphoid tumors, EC50 (μM) SUDHL4
[41] = HL-60 cell line, read-out: Haematopoietic & Lymphoid tumors, EC50 (μM) HL-60
[42] = JM1 cell line, read-out: Haematopoietic & Lymphoid tumors, EC50 (μM) JM1
[43] = JURKAT, Clone E6-1 cell line, read-out: Haematopoietic & Lymphoid tumors, EC50 (μM) JURKAT, Clone E6-1
[44] = JeKo-1 cell line, read-out: Haematopoietic & Lymphoid tumors, EC50 (μM) JeKo-1
[45] = KASUMI-1 cell line, read-out: Haematopoietic & Lymphoid tumors, EC50 (μM) KASUMI-1
[46] = Loucy cell line, read-out: Haematopoietic & Lymphoid tumors, EC50 (μM) Loucy
[47] = MOLT-4 cell line, read-out: Haematopoietic & Lymphoid tumors, EC50 (μM) MOLT-4
[48] = TF-1 cell line, read-out: Haematopoietic & Lymphoid tumors, EC50 (μM) TF-1
[49] = TOLEDO cell line, read-out: Haematopoietic & Lymphoid tumors, EC50 (μM) TOLEDO

T1 sequence (P49760 whole entry): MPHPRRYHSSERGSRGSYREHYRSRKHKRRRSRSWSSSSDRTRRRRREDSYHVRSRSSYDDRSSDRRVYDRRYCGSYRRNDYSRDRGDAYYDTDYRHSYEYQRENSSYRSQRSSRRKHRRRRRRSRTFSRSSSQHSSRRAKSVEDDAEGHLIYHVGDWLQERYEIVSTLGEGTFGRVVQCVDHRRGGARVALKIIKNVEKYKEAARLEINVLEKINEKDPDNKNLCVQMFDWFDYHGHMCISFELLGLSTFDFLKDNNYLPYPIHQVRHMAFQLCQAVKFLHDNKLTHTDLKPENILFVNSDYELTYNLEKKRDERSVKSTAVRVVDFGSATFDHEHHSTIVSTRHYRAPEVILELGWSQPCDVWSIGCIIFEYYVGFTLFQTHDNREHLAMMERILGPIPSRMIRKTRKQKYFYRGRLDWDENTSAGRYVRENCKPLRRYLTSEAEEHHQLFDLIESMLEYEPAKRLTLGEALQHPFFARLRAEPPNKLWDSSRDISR
Chain of CLK3 (P49761 whole entry): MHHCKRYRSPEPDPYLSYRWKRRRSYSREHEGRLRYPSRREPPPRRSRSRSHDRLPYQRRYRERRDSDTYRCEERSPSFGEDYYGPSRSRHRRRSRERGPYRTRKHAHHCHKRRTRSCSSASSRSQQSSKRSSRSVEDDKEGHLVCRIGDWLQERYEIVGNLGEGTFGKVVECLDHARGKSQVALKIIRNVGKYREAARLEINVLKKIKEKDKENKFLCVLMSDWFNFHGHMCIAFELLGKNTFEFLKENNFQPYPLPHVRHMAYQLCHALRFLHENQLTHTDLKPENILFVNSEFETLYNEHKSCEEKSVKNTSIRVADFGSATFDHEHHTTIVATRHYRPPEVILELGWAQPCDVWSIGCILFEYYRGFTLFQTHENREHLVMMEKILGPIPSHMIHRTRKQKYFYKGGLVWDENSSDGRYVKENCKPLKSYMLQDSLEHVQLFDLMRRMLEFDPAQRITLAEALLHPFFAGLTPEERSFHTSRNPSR

For `CN(C)C1CCN(c2cc(C(=O)Nc3ncc4ccc(-c5cn(C)nn5)cc4n3)ccn2)CC1` [Compound 80], the EC50 (CLK2) was 8.9 nM, the EC50 [1, 8] was 631 nM and the EC50 [1, 9] was 3680 nM. For the same compound, the EC50 [1, 10] was over 10000 nM, the EC50 (all 50 cell lines) was 4070 nM and the EC50 [2, 11] was 2.06 µM. For the same compound, the EC50 [2, 12] was 6.22 µM, the EC50 [2, 13] was 1.4 µM and the EC50 [2, 14] was 7.22 µM. It also gave an EC50 [2, 15] of 0.926 µM, an EC50 [2, 16] of 1.51 µM and an EC50 [3, 17] of 2.81 µM. The EC50 [3, 18] was 5.46 µM, the EC50 [3, 19] was over 10 µM and the EC50 [3, 20] was 1.59 µM. For the same compound, the EC50 [4, 21] was 3.18 µM, the EC50 [4, 22] was 1.97 µM and the EC50 [4, 23] was 5.6 µM. For the same compound, the EC50 [4, 24] was 1.41 µM, the EC50 [5, 25] was 9580 nM and the EC50 [5, 26] was 3720 nM. The EC50 [5, 27] was 7500 nM, the EC50 [5, 28] was 1110 nM and the EC50 [5, 29] was 5110 nM. For the same compound, the EC50 [5, 30] was 8910 nM, the EC50 [5, 31] was 3510 nM and the EC50 (CLK3) was 38.6 nM. For the same compound, the EC50 (CAMA1) was 3090 nM, the EC50 (HCC1599) was 2190 nM and the EC50 (BT-549) was 4500 nM. It also gave an EC50 (T47D) of 4620 nM, an EC50 (DU4475) of 3220 nM and an EC50 (MDA-MB-231-Luc) of 4060 nM. For the same compound, the EC50 (MCF7) was 6640 nM, the EC50 (ZR-75-1) was 4030 nM and the EC50 [6, 32] was 5780 nM. For the same compound, the EC50 [6, 33] was 3980 nM, the EC50 [6, 34] was 2850 nM and the EC50 [6, 35] was 9120 nM. The EC50 [6, 36] was 6020 nM, the EC50 [7, 37] was 2.11 µM and the EC50 [7, 38] was 0.879 µM. The EC50 [7, 39] was 2.45 µM, the EC50 [7, 40] was 2.27 µM and the EC50 [7, 41] was 3.25 µM. It also gave an EC50 [7, 42] of 1.19 µM, an EC50 [7, 43] of 4.05 µM and an EC50 [7, 44] of 0.731 µM. The EC50 [7, 45] was 3.05 µM, the EC50 [7, 46] was 1.6 µM and the EC50 [7, 47] was 3.61 µM. It also gave an EC50 [7, 48] of over 10 µM and an EC50 [7, 49] of 2.8 µM.
`[2H]c1c([2H])c([2H])c(/C=C/C(=O)Nc2cc3cc(-c4cncn4C)ccc3cn2)c([2H])c1[2H]` [Compound 81] gave an EC50 (CLK2) of 3.4 nM, an EC50 [1, 8] of 112 nM and an EC50 [1, 9] of 470 nM. It also gave an EC50 [1, 10] of 466 nM, an EC50 (all 50 cell lines) of 324 nM and an EC50 [2, 11] of 0.147 µM. It also gave an EC50 [2, 12] of 0.433 µM, an EC50 [2, 13] of 0.135 µM and an EC50 [2, 14] of 0.199 µM. For the same compound, the EC50 [2, 15] was 0.12 µM, the EC50 [2, 16] was 0.132 µM and the EC50 [3, 17] was 0.216 µM. For the same compound, the EC50 [3, 18] was 0.396 µM, the EC50 [3, 19] was 0.329 µM and the EC50 [3, 20] was 0.216 µM. The EC50 [4, 21] was 0.218 µM, the EC50 [4, 22] was 0.228 µM and the EC50 [4, 23] was 0.838 µM. It also gave an EC50 [4, 24] of 0.315 µM, an EC50 [5, 25] of 848 nM and an EC50 [5, 26] of 372 nM. For the same compound, the EC50 [5, 27] was 620 nM, the EC50 [5, 28] was 261 nM and the EC50 [5, 29] was 564 nM. For the same compound, the EC50 [5, 30] was 600 nM, the EC50 [5, 31] was 348 nM and the EC50 (CLK3) was 15.4 nM. The EC50 (CAMA1) was 429 nM, the EC50 (HCC1599) was 165 nM and the EC50 (BT-549) was 273 nM. It also gave an EC50 (T47D) of 471 nM, an EC50 (DU4475) of 152 nM and an EC50 (MDA-MB-231-Luc) of 338 nM. For the same compound, the EC50 (MCF7) was 505 nM, the EC50 (ZR-75-1) was 441 nM and the EC50 [6, 32] was 429 nM. For the same compound, the EC50 [6, 33] was 287 nM, the EC50 [6, 34] was 329 nM and the EC50 [6, 35] was 444 nM. It also gave an EC50 [6, 36] of 497 nM, an EC50 [7, 37] of 0.213 µM and an EC50 [7, 38] of 0.025 µM. It also gave an EC50 [7, 39] of 0.106 µM, an EC50 [7, 40] of 0.407 µM and an EC50 [7, 41] of 0.235 µM. The EC50 [7, 42] was 0.12 µM, the EC50 [7, 43] was 0.305 µM and the EC50 [7, 44] was 0.136 µM. The EC50 [7, 45] was 0.206 µM, the EC50 [7, 46] was 0.374 µM and the EC50 [7, 47] was 0.186 µM. It also gave an EC50 [7, 48] of 0.391 µM and an EC50 [7, 49] of 0.13 µM.
